In brackets after ≈: the same amount, converted by molar mass.
How the values were obtained:
[1] = tested on: P388 murine leukaemia resistant to doxorubicin; assay: Antitumor activity in vivo on P388/DX leukaemia; set-up: species or system BD2F1 mice; conditions: for T/C: Median survival time of treated mice/Median survival time of controls x 100, at Optimal Dose, i.v. one day after tumor transplantation; for O.D. (Optimal Dose): injected i.v. one day after tumor transplantation, 10^5 cell/mouse transplanted i.v.
[2] = tested on: LoVo/DX (colon adenocarcinoma resistant to doxorubicin); assay: Colony assay, cytotoxic activity on LoVo/DX cells; type: cell-based, human; conditions: for R.I. (Resistance Index): (IC50 Lovo/DX)/(IC50 LoVo); for IC50: Homo sapiens, LoVo/DX, Colony assay: 4 h treatment, concentration inhibiting 50% colony formation
From the text: (§1) The cytotoxic activity is reported as IC50, the concentration inhibiting 50% of colony formation, calculated on concentration response curves. Resistance index R.I. is the ratio between the IC50 on resistant cells and the IC50 on sensitive cells.

[3] = tested on: LoVo (colon adenocarcinoma); assay: Colony assay, cytotoxic activity on LoVo cells; type: cell-based; conditions: Homo sapiens, Colony assay: 4 h treatment, concentration inhibiting 50% colony formation
From the text: as §1

| Structure (SMILES) | T/C [1] | O.D. (Optimal Dose) [1] | R.I. (Resistance Index) [2] | IC50 [2] | IC50 [3] |
| --- | --- | --- | --- | --- | --- |
| CC(=O)[C@]1(O)Cc2c(O)c3c(c(O)c2[C@@H](O[C@H]2C[C@H](N)[C@H](OS(C)(=O)=O)[C@H](C)O2)C1)C(=O)c1ccccc1C3=O [Compound 1b, 4-demethoxy-4'-O-methansulfonyldaunorubicin] | 133% | 8.1 mg/kg | 5.8 | 0.0605 µg/mL (≈ 0.105 µM) | 0.0105 µg/mL (≈ 0.0182 µM) |
| COc1cccc2c1C(=O)c1c(O)c3c(c(O)c1C2=O)C[C@@](O)(C(=O)CO)C[C@@H]3O[C@H]1C[C@H](N)[C@H](OS(C)(=O)=O)[C@H](C)O1 [Compound 2a, 4'-O-methansulfonyldoxorubicin] | 137% | 40.0 mg/kg | 104.0 | 1.8 µg/mL (≈ 2.9 µM) | 0.0173 µg/mL (≈ 0.0278 µM) |
| COc1cccc2c1C(=O)c1c(O)c3c(c(O)c1C2=O)C[C@@](O)(C(=O)CO)C[C@@H]3O[C@H]1C[C@H](N)[C@H](O)[C@H](C)O1 [doxorubicin, reference compound] |  | 16.9 mg/kg |  | 2.55 µg/mL (≈ 4.7 µM) | 0.049 µg/mL (≈ 0.0902 µM) |
